Measured values published in patent publication US12686846B2, “Plant sweet and yeast MSF transporter capable of transporting different sugars simultaneously” (THE BOARD OF TRUSTEES OF THE UNIVERSITY OF ILLINOIS, priority 2020, dated 2026).
“Also recorded” adds a separate entry of the source.

Key:
Type in all cases: cell-based
[1] = biological target: T1, Lipomyces starkeyi LST1_205437 transporter, wild type, SEQ ID NO: 4 (Lipomyces starkeyi, UniProt A0A1E3QE37); experiment: C14 labeled sugar uptake assay (zero-trans influx), SR8D8 expressing LST1_205437; settings: initial glucose uptake (5 s), 30° C., pH 6.5; cell wet weight; ± SEM
T1 construct: whole-cell 14C sugar uptake
T1 sequence (A0A1E3QE37 1-603): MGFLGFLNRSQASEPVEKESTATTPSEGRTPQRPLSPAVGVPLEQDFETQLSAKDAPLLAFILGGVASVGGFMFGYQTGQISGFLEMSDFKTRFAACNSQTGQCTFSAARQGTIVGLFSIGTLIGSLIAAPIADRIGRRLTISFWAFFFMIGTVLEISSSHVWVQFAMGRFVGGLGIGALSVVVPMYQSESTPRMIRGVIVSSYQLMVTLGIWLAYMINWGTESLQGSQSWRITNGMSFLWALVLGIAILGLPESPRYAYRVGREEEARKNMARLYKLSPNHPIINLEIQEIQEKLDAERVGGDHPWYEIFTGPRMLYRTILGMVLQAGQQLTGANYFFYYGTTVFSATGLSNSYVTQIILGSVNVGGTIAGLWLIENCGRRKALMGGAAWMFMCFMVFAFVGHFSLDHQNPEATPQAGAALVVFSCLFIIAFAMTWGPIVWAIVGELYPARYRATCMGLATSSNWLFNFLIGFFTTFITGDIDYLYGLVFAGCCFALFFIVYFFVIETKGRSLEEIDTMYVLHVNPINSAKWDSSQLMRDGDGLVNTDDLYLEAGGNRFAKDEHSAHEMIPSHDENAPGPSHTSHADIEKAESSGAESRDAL
Procedure: FIG. 7A illustrates sugar uptake kinetics by SR8D8. FIG. 7B illustrates sugar uptake kinetics by SR8D8 expressing AtSWEET1. FIG. 7C illustrates sugar uptake kinetics by SR8D8 expressing ScGal2. FIG. 7D illustrates sugar uptake kinetics by SR8D8 expressing AtSWEET7. FIG. 7E illustrates sugar uptake kinetics by SR8D8 expressing LST1_205437. Initial xylose uptake (20 s) was measured at 30° C. over a concentration range of 1 to 500 mM xylose. FIG. 7F illustrates sugar uptake kinetics by SR8D8. FIG. 7G illustrates sugar uptake kinetics by SR8D8 expressing AtSWEET1. FIG. 7H illustrates sugar uptake kinetics by SR8D8 expressing ScGal2. FIG. 7I illustrates sugar uptake kinetics by SR8D8 expressing AtSWEET7. FIG. 7J illustrates sugar uptake kinetics by SR8D8 expressing LST1_205437. Initial glucose uptake (5 s) was measured at 30° C. over a concentration range of 0.2 to 100 mM glucose. Curve fitting for Michaelis-Menten kinetics was applied to data of three independent measurements at each concentration.
A xylose fermenting S. cerevisiae yeast (SR8) with HXT1-7Δ, GAL2Δ deletions was used for transporter screening and characterization (SR8D8). SR8D8 was grown in YPE medium/plate (10 g/L yeast extract, 20 g/L peptone, and 5 g/L ethanol). […] Biomass was calculated from the OD600 measured using a Biomate 5 UV-visible spectrophotometer (Fisher, NY, USA). All growth rates were measured using a Bioscreen C plate reader system (Growth Curves USA, Piscataway, NJ, USA). […]
SR8D8 containing the respective plasmid was grown on selective YPE medium to an OD600 of 1-1.5, harvested by centrifugation, and washed twice in ice-cold uptake buffer (100 mM potassium phosphate, pH 6.5). […] Radioactivity was analyzed in a Beckman-Coulter LS6500 multi-purpose liquid scintillation counter (Beckman-Coulter, CA, USA).
Uptake was measured at sugar concentrations 0.2, 1, 5, 25, and 100 mM for glucose and 1, 5, 25, 66, 100, 200, and 500 mM for xylose. Inhibition of xylose uptake by glucose was measured at 25, 66, and 100 mM xylose with additional 25 and 100 mM unlabeled glucose.

[2] = biological target: T2, Arabidopsis thaliana AtSWEET7 transporter, wild type (Table 2: SEQ ID NO: 3; FIG. 12: SEQ ID NO:2) (Arabidopsis thaliana, UniProt Q8LBF7); experiment: Inhibition of xylose uptake by glucose, SR8D8 expressing AtSWEET7; settings: 25 mM and 100 mM glucose; in words
T2 construct: expressed in transfected cells; host or cells: S. cerevisiae SR8D8 (SR8 with HXT1-7 and GAL2 deleted), plasmid p42K-GPD1p-CYC1t
T2 sequence (Q8LBF7 1-258): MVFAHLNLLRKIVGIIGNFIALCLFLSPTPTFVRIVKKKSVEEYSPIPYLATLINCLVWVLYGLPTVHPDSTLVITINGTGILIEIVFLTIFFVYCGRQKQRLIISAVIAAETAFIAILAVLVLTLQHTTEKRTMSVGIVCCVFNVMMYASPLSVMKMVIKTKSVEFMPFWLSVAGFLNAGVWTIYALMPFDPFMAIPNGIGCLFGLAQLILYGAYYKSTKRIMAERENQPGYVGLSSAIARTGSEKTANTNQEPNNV
Procedure: (§1) Symbols: glucose (square), xylose (triangle up), DCW (circle), ethanol (triangle down), glycerol (diamond). […] Global curve fitting for Michaelis-Menten kinetics with competitive inhibition was applied to data of three independent measurements at each concentration.
(§2) SR8D8 containing the respective plasmid was grown on selective YPE medium to an OD600 of 1-1.5, harvested by centrifugation, and washed twice in ice-cold uptake buffer (100 mM potassium phosphate, pH 6.5). C14 labeled sugar uptake assay was done according to Boles and Oreb. Radioactivity was analyzed in a Beckman-Coulter LS6500 multi-purpose liquid scintillation counter (Beckman-Coulter, CA, USA).
(§3) Sugar solutions contained 0.135-0.608 μCi of D-[U-^14C]-glucose (290-300 mCi/mmol) or D-[1-^14C]-xylose (55 mCi/mmol) (PerkinElmer, MA, USA). Calculation of Km (Michaelis constant), Vmax (maximal initial uptake velocity), and K (inhibitor constant for competitive inhibition) was done by nonlinear regression analysis and global curve fitting in Prism 7 (GraphPad Software) with values of three independent measurements.

[3] = biological target: T1, Lipomyces starkeyi LST1_205437 transporter, wild type, SEQ ID NO: 4; experiment: Inhibition of xylose uptake by glucose, SR8D8 expressing LST1_205437; settings: 25 mM or 100 mM glucose; in words
Procedure: as §1, §2, §3

## OC[C@H]1OC(O)[C@H](O)[C@@H](O)[C@@H]1O (stereo partly drawn) [Glucose]
[1]
  Vmax (glucose): 47.0 ± 2.6 nmol/min/mg
[2]
  inhibition of xylose transport by glucose: no inhibition of xylose transport by glucose; also recorded: do not have any xylose transport inhibition
[3]
  inhibition of xylose transport by glucose: less inhibited by glucose than those by ScGal2; also recorded: glucose concentration dependent inhibition of xylose transport
